The term bioavailability denotes dose-corrected exposure relative to a reference, in per cent. High values mean much systemic uptake, low ones little systemic uptake.

This note sets out measurements from ChEMBL document CHEMBL3880397, “Glucopyranosyloxypyrazole derivatives and use thereof in medicines” (2004).

Series [1] relates to Rattus norvegicus. In words: Reduction in urinary glucose excretion in overnight fasted Sprague-Dawley rat assessed as urinary glucose concentration per 200 g of body weight per 24 hours at 3 mg/kg, po. The series is classed as functional.
A short description of series [2]: Oral bioavailability in Sprague-Dawley rat at 10 mg/kg after 15 to 240 mins by LC-MS/MS method. As to conditions: in vivo. Type of series: ADME, organism-based.
For series [3], the system named is Rattus norvegicus. Nature of the series: Reduction in urinary glucose excretion in overnight fasted Sprague-Dawley rat assessed as urinary glucose concentration per 200 g of body weight per 24 hours at 1 mg/kg, po. The series is classed as functional.
The subject of series [4] is Rattus norvegicus. In words: Reduction in urinary glucose excretion in overnight fasted Sprague-Dawley rat assessed as urinary glucose concentration per 200 g of body weight per 24 hours at 10 /kg, po. The series is classed as functional.
The nature of series [5]: Oral bioavailability in Sprague-Dawley rat at 10 mg/kg after 15 to 240 mins by HPLC method. As to conditions: in vivo. The series is classed as ADME, organism-based.
Series [6] in a line: Toxicity in ICR mouse assessed as induction of mouse mortality by measuring death incidence at 2000 mg/kg, po measured up to 24 hrs post dose. Type of series: organism-based. As to conditions: in vivo.

Turning to `COC(=O)OC[C@H]1O[C@@H](Oc2nn(C(C)C)c(C)c2Cc2ccc(OC(C)C)cc2)[C@H](O)[C@@H](O)[C@@H]1O`, the Activity in the series with Rattus norvegicus [1] worked out at 36.8 mg; with Rattus norvegicus [3], 1.7 mg; in the series with Rattus norvegicus [4], 167.3 mg. In series [2], this compound had a bioavailability of 27%.
Compound `Cc1c(Cc2ccc(OC(C)C)cc2)c(O[C@@H]2O[C@H](COC(=O)OCC(C)C)[C@@H](O)[C@H](O)[C@H]2O)nn1C(C)C` had a bioavailability in series [2] of 32%.
Regarding `Cc1[nH]nc(O[C@@H]2O[C@H](CO)[C@@H](O)[C@H](O)[C@H]2O)c1Cc1ccc(OC(C)C)cc1`, in series [5], the bioavailability was determined as 0%.
`Cc1[nH]nc(O[C@@H]2O[C@H](CO)[C@@H](O)[C@H](O)[C@H]2O)c1Cc1ccc(C(C)C)cc1` came in with a bioavailability in series [5] of 15%.
For `CSc1ccc(Cc2c(O[C@@H]3O[C@H](CO)[C@@H](O)[C@H](O)[C@H]3O)n[nH]c2C(F)(F)F)cc1`, the Activity entry in series [6] is reported as “Non-Toxic”. The bioavailability in series [5] is 11%.
As for `CCOC(=O)OC[C@H]1O[C@@H](Oc2nn(C(C)C)c(C)c2Cc2ccc(OC(C)C)cc2)[C@H](O)[C@@H](O)[C@@H]1O` [REMOGLIFLOZIN ETABONATE], the figures for the Activity with Rattus norvegicus [1], in the series with Rattus norvegicus [3] and in the series with Rattus norvegicus [4] were 28.3 mg, 1.6 mg and 127.5 mg, respectively. The compound also yielded a bioavailability in series [2] of 27%.
